Assay results as given in patent US8569281B2, “Compounds and their administration for treating a neurodegenerative disease as well as a method for identifying a compound capable of inhibiting a kinase, such as LRRK” (Medical Research Council Technology, priority 2010, dated 2013).
Read-outs that look alike come from different tables or passages of the source.

Target: LRRK2 (Homo sapiens (Human), UniProt Q5S007)
Experiment: In Vitro LRRK2 Assay (LabChip 3000, fluorescently-labeled peptide substrate)
Assay type: biochemical
Details: read-out: Ki (μM), affinity values for LRRK2
Protocol: This assay was used to determine a compound's potency in inhibiting activity of LRRK2 by determining, Kiapp, IC50, or percent inhibition values. In a polypropylene plate, LRRK2, fluorescently-labeled peptide substrate, ATP and test compound were incubated together. Using a LabChip 3000 (Caliper Life Sciences), after the reaction the substrate was separated by capillary electrophoresis into two populations: phosphorylated and unphosphorylated. The relative amounts of each were quantitated by fluorescence intensity. LRRK2 Ki was determined according to the equation: Y=V0*(1−((x+Ki*(1+S/Km)+Et)/(2*Et)−(((x+Ki*(1+S/Km)+Et)^2−(4*Et*x))^0.5)/(2*Et))).
Ki values in Table 4 and elsewhere herein are shown in μM.
Assay conditions and materials used were as follows:
Compound Plate Preparation:
For serial dilutions, 34.6 μl DMSO was added to columns 3-24.
Total and Blank Preparation:
In Complete Reaction Buffer, substrate was diluted to 4 μM. Equal volumes of Complete Reaction Buffer and 4 μM substrate were combined to obtain the blank. Equal volumes of Complete Reaction Buffer and 4 μM substrate were combined and to the combined solution was added 2× final LRRK2 concentration.
To a 50 μl polypropylene plate, 5 μl/well buffer/substrate was added by hand to Blank wells. A Biomek FX was used to start the kinase reaction (“PLK SAR 23 ATP”). The following were added to the appropriate wells: • 2 μl compound+23 μl ATP; • 5 μl/well compound/ATP in Assay Plate; • 5 μl/well kinase/substrate in Assay Plate;
The plate was incubated for 2 hours in the dark. Biomek FX was used to stop the kinase reaction (“PLK Stop”), and 10 μl/well Stop solution was added to the Assay Plate. Results were read on the LabChip 3000.
The LabChip 3000 was run using the job “LRRK2 IC50” with the following job settings: • Pressure: −1.4 psi • Downstream voltage: −500 V • Upstream voltage: −2350 V • Post sample buffer sip time: 75 seconds • Post dye buffer sip time: 75 seconds • Final delay time: 200 seconds Parkinson's Disease Animal Model

[1] = ATP 130 μM, substrate 1 μM, 2 hours, ambient temperature, LRRK2 variant not given

Sequence of LRRK2 (Q5S007 whole entry G2019S): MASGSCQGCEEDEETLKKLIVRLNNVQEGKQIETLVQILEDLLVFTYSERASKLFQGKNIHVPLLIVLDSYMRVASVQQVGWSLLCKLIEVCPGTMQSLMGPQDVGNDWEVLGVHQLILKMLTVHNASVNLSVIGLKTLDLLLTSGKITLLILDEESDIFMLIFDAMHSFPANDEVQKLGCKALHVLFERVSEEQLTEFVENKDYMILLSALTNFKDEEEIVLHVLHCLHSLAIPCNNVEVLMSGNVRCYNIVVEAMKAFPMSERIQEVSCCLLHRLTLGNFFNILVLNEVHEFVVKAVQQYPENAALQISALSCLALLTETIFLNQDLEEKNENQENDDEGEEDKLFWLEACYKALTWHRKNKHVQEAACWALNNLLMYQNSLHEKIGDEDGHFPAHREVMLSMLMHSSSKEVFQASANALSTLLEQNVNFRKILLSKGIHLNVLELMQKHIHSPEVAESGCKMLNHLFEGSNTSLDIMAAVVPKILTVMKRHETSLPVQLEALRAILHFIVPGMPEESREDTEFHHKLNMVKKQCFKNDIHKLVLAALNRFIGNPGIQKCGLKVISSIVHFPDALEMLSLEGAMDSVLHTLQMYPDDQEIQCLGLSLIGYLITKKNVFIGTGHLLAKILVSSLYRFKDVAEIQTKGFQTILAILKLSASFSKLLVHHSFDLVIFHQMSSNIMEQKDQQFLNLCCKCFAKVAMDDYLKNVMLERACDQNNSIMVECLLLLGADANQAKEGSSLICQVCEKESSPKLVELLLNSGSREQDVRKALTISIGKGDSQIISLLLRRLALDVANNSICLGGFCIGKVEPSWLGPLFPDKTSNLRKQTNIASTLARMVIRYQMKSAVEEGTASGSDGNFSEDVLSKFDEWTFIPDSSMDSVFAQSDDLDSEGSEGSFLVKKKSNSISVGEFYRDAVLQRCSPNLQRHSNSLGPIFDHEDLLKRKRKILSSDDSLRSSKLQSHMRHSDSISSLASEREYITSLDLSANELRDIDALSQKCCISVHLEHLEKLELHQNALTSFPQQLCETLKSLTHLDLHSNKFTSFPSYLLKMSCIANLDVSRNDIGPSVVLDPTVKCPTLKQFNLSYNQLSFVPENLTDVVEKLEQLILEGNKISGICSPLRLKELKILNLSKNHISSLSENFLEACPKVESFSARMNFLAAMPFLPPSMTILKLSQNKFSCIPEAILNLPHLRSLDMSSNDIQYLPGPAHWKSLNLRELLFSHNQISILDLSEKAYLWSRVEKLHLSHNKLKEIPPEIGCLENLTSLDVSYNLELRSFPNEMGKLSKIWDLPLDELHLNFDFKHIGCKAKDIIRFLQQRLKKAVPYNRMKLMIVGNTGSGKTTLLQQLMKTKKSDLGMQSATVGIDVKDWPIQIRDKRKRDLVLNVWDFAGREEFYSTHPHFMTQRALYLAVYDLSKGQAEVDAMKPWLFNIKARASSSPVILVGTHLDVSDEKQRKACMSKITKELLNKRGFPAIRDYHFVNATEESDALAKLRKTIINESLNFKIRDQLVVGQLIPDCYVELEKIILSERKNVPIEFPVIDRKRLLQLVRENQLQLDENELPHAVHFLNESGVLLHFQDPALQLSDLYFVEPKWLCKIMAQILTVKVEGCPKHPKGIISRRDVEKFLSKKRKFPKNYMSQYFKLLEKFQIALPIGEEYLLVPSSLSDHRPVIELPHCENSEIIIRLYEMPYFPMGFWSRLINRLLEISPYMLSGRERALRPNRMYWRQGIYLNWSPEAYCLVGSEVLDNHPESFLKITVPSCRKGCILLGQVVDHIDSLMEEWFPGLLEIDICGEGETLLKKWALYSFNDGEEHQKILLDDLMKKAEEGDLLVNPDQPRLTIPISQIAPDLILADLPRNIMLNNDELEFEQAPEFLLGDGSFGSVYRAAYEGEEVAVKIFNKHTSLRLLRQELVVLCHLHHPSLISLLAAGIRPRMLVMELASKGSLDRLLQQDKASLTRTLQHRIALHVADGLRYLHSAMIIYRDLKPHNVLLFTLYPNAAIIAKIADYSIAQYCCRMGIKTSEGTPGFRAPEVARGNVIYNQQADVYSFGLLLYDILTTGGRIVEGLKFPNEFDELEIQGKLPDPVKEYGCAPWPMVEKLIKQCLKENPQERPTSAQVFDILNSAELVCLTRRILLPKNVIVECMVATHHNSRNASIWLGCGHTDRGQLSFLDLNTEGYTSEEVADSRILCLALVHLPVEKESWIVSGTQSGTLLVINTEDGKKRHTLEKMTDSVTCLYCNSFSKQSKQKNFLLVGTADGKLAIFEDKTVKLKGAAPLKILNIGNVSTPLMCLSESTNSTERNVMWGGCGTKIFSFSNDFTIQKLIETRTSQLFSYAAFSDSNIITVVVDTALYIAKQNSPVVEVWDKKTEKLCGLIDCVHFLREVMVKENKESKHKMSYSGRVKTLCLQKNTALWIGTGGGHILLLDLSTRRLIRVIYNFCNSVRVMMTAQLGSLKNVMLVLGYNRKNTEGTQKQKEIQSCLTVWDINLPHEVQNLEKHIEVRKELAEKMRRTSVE

Molecule “3-(1-((2,2-difluorocyclopropyl)methyl)-1H-benzo[d]imidazol-5-yl)-4-(tetrahydro-2H-pyran-4-yloxy)-1H-pyrazolo[4,3-c]pyridine [Example 127]” has a Ki [1] of 0.023 µM.

“3-(1-(Oxetan-3-yl)-1H-benzo[d]imidazol-6-yl)-4-(tetrahydro-2H-pyran-4-yloxy)-1H-pyrazolo[4,3-c]pyridine [Example 124]” showed a Ki of 0.019 µM.

“3-(1-(oxetan-3-yl)-1H-benzo[d]imidazol-5-yl)-4-(tetrahydro-2H-pyran-4-yloxy)-1H-pyrazolo[4,3-c]pyridine [Example 125]” was tested, and the Ki was 0.056 µM.

For “3-(1-isopropyl-1H-benzo[d]imidazol-5-yl)-4-(tetrahydro-2H-pyran-4-yloxy)-1H-pyrazolo[4,3-c]pyridine [Example 123]”, the Ki [1] was 0.02 µM.

Work on `CC1CCCN(C(=O)CCc2[nH]nc3ccnc(NC4CCOCC4)c23)C1` (stereo in doubt) [Example 2, 1-[(3R)-3-methylpiperidin-1-yl]-3-[4-(tetrahydro-2H-pyran-4-ylamino)-1H-pyrazolo-[4,3-c]pyridin-3-yl]propan-1-one] yielded a Ki [1] of 0.034 µM.

`O=C(CCc1[nH]nc2ccnc(OC3CCCCC3)c12)N1CCC[C@H](c2ccccc2)C1` [Example 6, 3-[4-(Cyclohexyloxy)-1H-pyrazolo[4,3-c]pyridin-3-yl]-1-[(3R)-3-phenylpiperidin-1-yl]propan-1-one] gave a Ki [1] of 0.014 µM.

For `O=C(c1ccc(CCc2n[nH]c3ccnc(NC4CCCCC4)c23)cc1)N1CCN(C2CC2)CC1` [Example 8, (4-{2-[4-(Cyclohexylamino)-1H-pyrazolo[4,3-c]pyridin-3-yl]ethyl}phenyl)(4-cyclopropylpiperazin-1-yl)methanone], the Ki [1] was 0.017 µM.

In the case of `c1cc(-c2n[nH]c3ccnc(NC4CCOCC4)c23)cc(N2CCOCC2)n1` [Example 9, 3-[2-(Morpholin-4-yl)pyridin-4-yl]-N-(tetrahydro-2H-pyran-4-yl)-1H-pyrazolo[4,3-c]pyridin-4-amine], the Ki [1] is reported as 0.027 µM.

`CN1CCN(c2cc(-c3n[nH]c4ccnc(OC5CCOCC5)c34)ccn2)CC1` [Example 14, 3-[2-(4-Methylpiperazin-1-yl)pyridin-4-yl]-4-(tetrahydro-2H-pyran-4-yloxy)-1H-pyrazolo[4,3-c]pyridine] showed a Ki [1] of 0.006 µM.

`c1cc2n[nH]c(C3CC3)c2c(OC2CCCCC2)n1` [Example 26, 4-(Cyclohexyloxy)-3-cyclopropyl-1H-pyrazolo[4,3-c]pyridine] showed a Ki [1] of 0.024 µM.

Work on `c1cc2n[nH]c(C3CC3)c2c(OC2CCOCC2)n1` [Example 28, 3-Cyclopropyl-4-(tetrahydro-2H-pyran-4-yloxy)-1H-pyrazolo[4,3-c]pyridine] yielded a Ki [1] of 0.035 µM.

Molecule `CC[C@@H](C)Oc1nccc2[nH]nc(C3CC3)c12` [Example 29, 3-Cyclopropyl-4-[(2R)-butan-2-yloxy)-1H-pyrazolo[4,3-c]pyridine] has a Ki [1] of 0.078 µM.

With `Cc1[nH]nc2ccnc(OC3CCOC3)c12` (stereo not drawn) [Example 31] the Ki [1] was 0.158 µM.

With `c1coc(-c2n[nH]c3ccnc(OC4CCOCC4)c23)c1` [Example 37, 3-(Furan-2-yl)-4-(tetrahydro-2H-pyran-4-yloxy)-1H-pyrazolo[4,3-c]pyridine] the Ki [1] was 0.132 µM.

With `c1cc2[nH]nc(-c3cnn(C4CCCC4)c3)c2c(OC2CCOCC2)n1` [Example 39, 3-(1-Cyclopentyl-1H-pyrazol-4-yl)-4-(tetrahydro-2H-pyran-4-yloxy)-1H-pyrazolo[4,3-c]pyridine] the Ki [1] was 0.006 µM.

`c1cc2[nH]nc(-c3cnn(CC4CCC4)c3)c2c(OC2CCCCC2)n1` [Example 41, 3-[1-(Cyclobutylmethyl)-1H-pyrazol-4-yl]-4-(cyclohexyloxy)-1H-pyrazolo[4,3-c]pyridine] was tested, and the Ki [1] was 0.055 µM.

For `Cn1cc(/C=C/c2n[nH]c3ccnc(OC4CCCCC4)c23)cn1` [Example 52, 4-(Cyclohexyloxy)-3-[(E)-2-(1-methyl-1H-pyrazol-4-yl)ethenyl]-1H-pyrazolo[4,3-c]pyridine], the Ki [1] was 0.0003 µM.

`CC(C)Oc1nccc2[nH]nc(-c3cc(C(=O)N(C)C)n(C(C)C)c3)c12` [Example 54, 4-(4-isopropoxy-1H-pyrazolo[4,3-c]pyridine-3-yl)-1-isopropyl-N,N-dimethyl-1H-pyrrole-2-carboxamide] was tested, and the Ki [1] was 0.018 µM.

`CC(C)Oc1nccc2[nH]nc(-c3cc(C(=O)N4CCCCC4)n(C(C)C)c3)c12` [Example 56, (4-(4-Isopropoxy-1H-pyrazolo[4,3-c]pyridin-3-yl)-1-isopropyl-1H-pyrrol-2-yl)(piperidin-1-yl)methanone] showed a Ki [1] of 0.019 µM.

`CC(C)Oc1nccc2[nH]nc(-c3cc(C(=O)N4CCOCC4)n(C(C)C)c3)c12` [Example 57, (4-(4-Isopropoxy-1H-pyrazolo[4,3-c]pyridin-3-yl)-1-isopropyl-1H-pyrrol-2-yl)(morpholino)methanone] was tested, and the Ki [1] was 0.019 µM.

In the case of `CC(C)Oc1nccc2[nH]nc(-c3cc(C(=O)NC4COC4)n(C(C)C)c3)c12` [Example 59, 4-(4-Isopropoxy-1H-pyrazolo[4,3-c]pyridin-3-yl)-1-isopropyl-N-(oxetan-3-yl)-1H-pyrrole-2-carboxamide], the Ki [1] is reported as 0.0024 µM.

Work on `COc1nccc2[nH]nc(-c3cc(C(=O)N(C)C)n(C(C)C)c3)c12` [Example 61, 1-Isopropyl-4-(4-methoxy-1H-pyrazolo[4,3-c]pyridin-3-yl)-N,N-dimethyl-1H-pyrrole-2-carboxamide] yielded a Ki [1] of 0.077 µM.

Molecule `COc1nccc2[nH]nc(-c3cc(C(=O)NC4COC4)n(C(C)C)c3)c12` [Example 64, 1-isopropyl-4-(4-methoxy-1H-pyrazolo[4,3-c]pyridin-3-yl)-N-(oxetan-3-yl)-1H-pyrrole-2-carboxamide] has a Ki [1] of 0.014 µM.

`CC(C)n1cc(-c2n[nH]c3ccnc(OC4CCOCC4)c23)cc1C(=O)N1CCOCC1` [Example 65, (1-isopropyl-4-(4-(tetrahydro-2H-pyran-4-yloxy)-1H-pyrazolo[4,3-c]pyridin-3-yl)-1H-pyrrol-2-yl)(morpholino)methanone] was tested, and the Ki [1] was 0.039 µM.

Work on `CC(C)n1cc(-c2n[nH]c3ccnc(OC4CCOCC4)c23)cc1C(=O)N(C)C` [Example 66, 1-isopropyl-N,N-dimethyl-4-(4-(tetrahydro-2H-pyran-4-yloxy)-1H-pyrazolo[4,3-c]pyridin-3-yl)-1H-pyrrole-2-carboxamide] yielded a Ki [1] of 0.045 µM.

In the case of `CC(C)n1cc(-c2n[nH]c3ccnc(OC4CCOCC4)c23)cc1C(=O)NC1COC1` [Example 70, 1-isopropyl-N-(oxetan-3-yl)-4-(4-(tetrahydro-2H-pyran-4-yloxy)-1H-pyrazolo[4,3-c]pyridin-3-yl)-1H-pyrrole-2-carboxamide], the Ki [1] is reported as 0.003 µM.

`O=C(c1cc(-c2n[nH]c3ccnc(OC4CCOCC4)c23)ccn1)N1CCOCC1` [Example 73, Morpholino(4-(4-(tetrahydro-2H-pyran-4-yloxy)-1H-pyrazolo[4,3-c]pyridin-3-yl)pyridin-2-yl)methanone] gave a Ki [1] of 0.221 µM.

`FC(F)(F)COc1nccc2[nH]nc(-c3ccnc(N4CCOCC4)c3)c12` [Example 74, 4-(4-(4-(2,2,2-Trifluoroethoxy)-1H-pyrazolo[4,3-c]pyridin-3-yl)pyridin-2-yl)morpholine] gave a Ki [1] of 0.031 µM.

Work on `CC(C)n1cc(-c2n[nH]c3ccnc(OCC(F)(F)F)c23)cn1` [Example 76, 3-(1-Isopropyl-1H-pyrazol-4-yl)-4-(2,2,2-trifluoroethoxy)-1H-pyrazolo[4,3-c]pyridine] yielded a Ki [1] of 0.026 µM.

Work on `CC(C)n1cc(-c2n[nH]c3ccnc(OC(C)C(F)(F)F)c23)cn1` (stereo not drawn) [Example 78, 3-(1-Isopropyl-1H-pyrazol-4-yl)-4-(2,2,2-trifluoro-1-methyl-ethoxy)-1H-pyrazolo[4,3-c]pyridine] yielded a Ki [1] of 0.013 µM.

`c1cc(-c2n[nH]c3ccnc(OC4CCOCC4)c23)nc(N2CCOCC2)n1` [Example 84, 4-(4-(4-(tetrahydro-2H-pyran-4-yloxy)-1H-pyrazolo[4,3-c]pyridin-3-yl)pyrimidin-2-yl)morpholine] showed a Ki [1] of 0.065 µM.

With `COc1nccc2[nH]nc(-c3cnn(C4COC4)c3)c12` [Example 86] the Ki [1] was 0.031 µM.

`COc1nccc2[nH]nc(-c3cnn(CC(F)(F)F)c3)c12` [Example 88, 4-Methoxy-3-(1-(2,2,2-trifluoroethyl)-1H-pyrazol-4-yl)-1H-pyrazolo[4,3-u]pyridine] gave a Ki [1] of 0.025 µM.

`COc1nccc2[nH]nc(-c3cnn(CC4(C)COC4)c3)c12` [Example 89, 4-Methoxy-3-(1-((3-methyloxetan-3-yl)methyl)-1H-pyrazol-4-yl)-1H-pyrazolo[4,3-c]pyridine] showed a Ki [1] of 0.108 µM.

`c1cc2[nH]nc(-c3cnn(CC4CCOCC4)c3)c2c(OC2CCOCC2)n1` [Example 93, 3-(1-((Tetrahydro-2H-pyran-4-yl)methyl)-1H-pyrazol-4-yl)-4-(tetrahydro-2H-pyran-4-yloxy)-1H-pyrazolo[4,3-c]pyridine] was tested, and the Ki [1] was 0.011 µM.

For `FC(F)(F)Cn1cc(-c2n[nH]c3ccnc(OC4CCOCC4)c23)cn1` [Example 96, 4-(tetrahydro-2H-pyran-4-yloxy)-3-(1-(2,2,2-trifluoroethyl)-1H-pyrazol-4-yl)-1H-pyrazolo[4,3-c]pyridine], the Ki [1] was 0.006 µM.
